In patent US9796702B2, “Dihydroquinoline pyrazolyl compounds” (Hoffmann-La Roche Inc., priority 2015, dated 2017):

Experiments:
CYP11B2 [1] = biological target: T1, CYP11B2 (Homo sapiens (Human), UniProt P19099); experiment: G-402 cellular enzyme assay, human CYP11B2 (aldosterone release); format: cell-based; conditions: G-402 cells expressing human CYP11B2; 1 μM Deoxycorticosterone
Description: (§1) Herein we identified the use of the G-402 cell line as a host cell to ectopically express (transiently or stably) enzymes of the CYP11 family. Specifically we developed stable G-402 cells expressing ectopically human CYP11B1, human CYP11B2, human CYP11A1, cynmolgus CYP11B1 or cynomolgus CYP11B2 enzyme activity. Importantly the identified cell line G-402 expresses co-factors (adrenodoxin and adrenodoxin reductase) important for the activity of the CYP11 family and no relevant enzyme activity of the CYP11 family (in comparison to H295R cells) was detected in these cells. Therefore the G-402 cell line is uniquely suited as a host cell for the ectopic expression of enzymes from the CYP11 family.
(§2) G-402 cells can be obtained from ATCC (CRL-1440) and were originally derived from a renal leiomyoblastoma.
(§3) The expression plasmids contains the ORF for either human/cyno CYP11B1 or CYP11B2 under the control of a suitable promoter (CMV-promoter) and a suitable resistance marker (neomycin). Using standard techniques the expression plasmid is transfected into G-402 cells and these cells are then selected for expressing the given resistance markers. Individual cell-clones are then selected and assessed for displaying the desired enzymatic activity using 11-Deoxycorticosterone (Cyp11B2) or 11-Deoxycortisol (Cyp11B1) as a substrate.
(§4) G-402 cells expressing CYP11 constructs were established as described above and maintained in McCoy's 5a Medium Modified, ATCC Catalog No. 30-2007 containing 10% FCS and 400 μg/ml G418 (Geneticin) at 37° C. under an atmosphere of 5% CO2/95% air. Cellular enzyme assays were performed in DMEM/F12 medium containing 2.5% charcoal treated FCS and appropriate concentration of substrate (0.3-10 uM 11-Deoxycorticosterone, 11-Deoxycortisol or Corticosterone). For assaying enzymatic activity, cells were plated onto 96 well plates and incubated for 16 h. An aliquot of the supernatant is then transferred and analyzed for the concentration of the expected product (Aldosterone for CYP11B2; Cortisol for CYP11B1). The concentrations of these steroids can be determined using HTRF assays from CisBio analyzing either Aldosterone or Cortisol.
(§5) Inhibition of the release of produced steroids can be used as a measure of the respective enzyme inhibition by test compounds added during the cellular enzyme assay. The dose dependent inhibition of enzymatic activity by a compound is calculated by means of plotting added inhibitor concentrations (x-axes) vs. measured steroid/product level (y-axes). The inhibition is then calculated by fitting the following 4-parameter sigmoidal function (Morgan-Mercer-Flodin (MMF) model) to the raw data points using the least squares method:
(§6) [formula] wherein, A is the maximum y value, B is the EC50 factor determined using XLFit, C is the minimum y value and D is the slope value.
(§7) EC50 values for compounds claimed herein were tested with the G402-based assay system described. Cyp11B2 enzyme activity was tested in presence of 1 μM Deoxycorticosterone and variable amounts of inhibitors; Cyp11B1 enzyme activity was tested in presence of 1 μM Deoxycortisol and variable amounts of inhibitors.

human CYP11B1 = human CYP11B1 (Homo sapiens (Human), UniProt P15538); experiment: G-402 cellular enzyme assay, human CYP11B1 (cortisol release); format: cell-based; conditions: G-402 cells expressing human CYP11B1; 1 μM Deoxycortisol
Description: as §1, §2, §3, §4, §5, §6, §7

[2] = cited from earlier work; for plasma aldosterone: FAD286: 4 weeks of treatment, spironolactone: 4 and 8 weeks of treatment; for cardiac and aortic medial hypertrophy / renal effects (albuminuria, azotemia, renovascular hypertrophy, glomerular injury, PAI-1 and osteopontin mRNA, tubulointerstitial fibrosis): angiotensin II and high salt treatment, rat; for angiotensin II and salt-stimulated PAI-1 mRNA expression: aorta and heart
[3] = rats with experimental heart failure; cited from earlier work
CYP11B2 [4] = biological target: T1, CYP11B2; conditions: patients with primary aldosteronism, cited from earlier work
CYP11B2 [5] = conditions: patients with primary aldosteronism; cited from earlier work

T1 sequence (P19099 25-503): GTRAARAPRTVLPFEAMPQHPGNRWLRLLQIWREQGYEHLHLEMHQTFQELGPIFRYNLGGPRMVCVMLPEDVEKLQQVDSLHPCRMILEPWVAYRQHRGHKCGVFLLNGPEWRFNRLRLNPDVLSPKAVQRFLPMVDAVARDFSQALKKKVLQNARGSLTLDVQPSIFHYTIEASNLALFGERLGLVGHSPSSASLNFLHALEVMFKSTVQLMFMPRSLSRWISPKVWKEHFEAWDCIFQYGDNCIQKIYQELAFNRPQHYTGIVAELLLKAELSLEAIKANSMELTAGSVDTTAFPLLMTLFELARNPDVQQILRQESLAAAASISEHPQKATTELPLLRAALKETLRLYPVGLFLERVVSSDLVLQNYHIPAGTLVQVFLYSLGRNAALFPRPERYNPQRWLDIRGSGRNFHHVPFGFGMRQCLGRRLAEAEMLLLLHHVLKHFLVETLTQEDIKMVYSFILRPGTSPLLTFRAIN
Sequence of human CYP11B1 (P15538 25-503): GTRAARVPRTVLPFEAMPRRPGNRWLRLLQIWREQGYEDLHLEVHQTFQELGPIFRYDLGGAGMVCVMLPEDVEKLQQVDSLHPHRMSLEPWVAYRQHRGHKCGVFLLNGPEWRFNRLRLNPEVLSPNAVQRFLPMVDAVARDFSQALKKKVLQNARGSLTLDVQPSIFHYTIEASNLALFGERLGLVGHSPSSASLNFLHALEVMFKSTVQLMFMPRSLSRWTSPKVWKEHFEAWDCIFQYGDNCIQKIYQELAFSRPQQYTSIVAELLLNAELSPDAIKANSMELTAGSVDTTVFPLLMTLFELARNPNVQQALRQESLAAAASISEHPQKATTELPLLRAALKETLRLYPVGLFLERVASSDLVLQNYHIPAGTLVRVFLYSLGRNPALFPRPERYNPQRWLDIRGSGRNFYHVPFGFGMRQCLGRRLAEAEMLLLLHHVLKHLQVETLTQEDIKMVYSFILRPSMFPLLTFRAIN

SMILES | EC50 (CYP11B2 [1]) [nM] | EC50 (human CYP11B1) [nM] | other results
CC(=O)N1CCC(Cc2c[nH]nc2-c2ccc3c(c2)CCC(=O)N3C)CC1 [Example 16, 6-[4-[(1-Acetyl-4-piperidyl)methyl]-1H-pyrazol-3-yl]-1-methyl-3,4-dihydroquinolin-2-one] | 0.0283 | 0.266 | –
CN1C(=O)CCc2cc(-c3n[nH]cc3CC3CCN(C(=O)c4cnn(C)c4)CC3)ccc21 [Example 17, 1-Methyl-6-[4-[[1-(1-methylpyrazole-4-carbonyl)-4-piperidyl]methyl]-1H-pyrazol-3-yl]-3,4-dihydroquinolin-2-one] | – | 1.2 | –
CCS(=O)(=O)N1CCC(Cc2c[nH]nc2-c2ccc3c(c2)CCC(=O)N3C)CC1 [Example 18, 6-[4-[(1-Ethylsulfonyl-4-piperidyl)methyl]-1H-pyrazol-3-yl]-1-methyl-3,4-dihydroquinolin-2-one] | 0.0052 | 0.216 | –
CC(=O)N1CCC(Cc2c[nH]nc2-c2cc3c(cc2F)N(C)C(=O)CC3)CC1 [Example 19, 6-[4-[(1-Acetylpiperidin-4-yl)methyl]-1H-pyrazol-3-yl]-7-fluoro-1-methyl-3,4-dihydroquinolin-2-one] | 0.0171 | 0.416 | –
CN1C(=O)CCc2c1ccc(-c1n[nH]cc1CC1CCN(C(=O)c3cnn(C)c3)CC1)c2F [Example 20, 5-Fluoro-1-methyl-6-[4-[[1-(1-methylpyrazole-4-carbonyl)piperidin-4-yl]methyl]-1H-pyrazol-3-yl]-3,4-dihydroquinolin-2-one] | – | 0.723 | –
CC(=O)N1CCC(Cc2c[nH]nc2-c2ccc3c(c2F)CCC(=O)N3C)CC1 [Example 21, 6-[4-[(1-Acetyl-4-piperidyl)methyl]-1H-pyrazol-3-yl]-5-fluoro-1-methyl-3,4-dihydroquinolin-2-one] | 0.012 | 0.447 | –
CCS(=O)(=O)N1CCC(Cc2cn[nH]c2-c2ccc3c(c2F)CCC(=O)N3C)CC1 [Example 22, 6-[4-[(1-Ethylsulfonylpiperidin-4-yl)methyl]-1H-pyrazol-3-yl]-5-fluoro-1-methyl-3,4-dihydroquinolin-2-one] | – | 0.133 | –
CN1C(=O)CCc2c1ccc(-c1[nH]ncc1CC1CCN(C(=O)c3ncccc3Cl)CC1)c2Cl [Example 28, 5-Chloro-6-[4-[[1-(3-chloropyridine-2-carbonyl)-4-piperidyl]methyl]-1H-pyrazol-3-yl]-1-methyl-3,4-dihydroquinolin-2-one] | 0.0276 | 2.45 | –
CN1C(=O)CCc2c1ccc(-c1[nH]ncc1CC1CCN(C(=O)c3ccnn3C)CC1)c2Cl [Example 29, 5-Chloro-1-methyl-6-[4-[[1-(2-methylpyrazole-3-carbonyl)-4-piperidyl]methyl]-1H-pyrazol-3-yl]-3,4-dihydroquinolin-2-one] | 0.0164 | 3.31 | –
CN1C(=O)CCc2c1ccc(-c1[nH]ncc1CC1CCN(C(=O)c3ccncc3Cl)CC1)c2Cl [Example 30, 5-Chloro-6-[4-[[1-(3-chloropyridine-4-carbonyl)-4-piperidyl]methyl]-1H-pyrazol-3-yl]-1-methyl-3,4-dihydroquinolin-2-one] | 0.0192 | 2.47 | –
CN1C(=O)CCc2cc(-c3[nH]ncc3CC3CCN(C(=O)c4cncn4C)CC3)ccc21 [Example 31, 1-Methyl-6-[4-[[1-(3-methylimidazole-4-carbonyl)-4-piperidyl]methyl]-1H-pyrazol-3-yl]-3,4-dihydroquinolin-2-one] | 0.007 | 1.12 | –
CN1C(=O)CCc2cc(-c3[nH]ncc3CC3CCN(C(=O)c4nccn4C)CC3)ccc21 [Example 32, 1-Methyl-6-[4-[[1-(1-methylimidazole-2-carbonyl)-4-piperidyl]methyl]-1H-pyrazol-3-yl]-3,4-dihydroquinolin-2-one] | 0.0294 | 0.351 | –
CN1C(=O)CCc2cc(-c3[nH]ncc3CC3CCN(C(=O)c4ncccc4Cl)CC3)ccc21 [Example 34, 6-[4-[[1-(3-Chloropyridine-2-carbonyl)-4-piperidyl]methyl]-1H-pyrazol-3-yl]-1-methyl-3,4-dihydroquinolin-2-one] | 0.0145 | 0.547 | –
CCS(=O)(=O)N1CC2(CC(Cc3c[nH]nc3-c3ccc4c(c3Cl)CCC(=O)N4C)C2)C1 [Example 39, 5-Chloro-6-[4-[(2-ethylsulfonyl-2-azaspiro[3.3]heptan-6-yl)methyl]-1H-pyrazol-3-yl]-1-methyl-3,4-dihydroquinolin-2-one] | 0.0059 | 0.215 | –
CC(=O)N1CC2(CC(Cc3c[nH]nc3-c3ccc4c(c3Cl)CCC(=O)N4C)C2)C1 [Example 40, 6-[4-[(2-Acetyl-2-azaspiro[3.3]heptan-6-yl)methyl]-1H-pyrazol-3-yl]-5-chloro-1-methyl-3,4-dihydroquinolin-2-one] | 0.0495 | 2.47 | –
CN1C(=O)CCc2c1ccc(-c1n[nH]cc1CC1CC3(C1)CN(C(=O)c1cnn(C)c1)C3)c2Cl [Example 41, 5-Chloro-1-methyl-6-[4-[[2-(1-methylpyrazole-4-carbonyl)-2-azaspiro[3.3]heptan-6-yl]methyl]-1H-pyrazol-3-yl]-3,4-dihydroquinolin-2-one] | 0.0377 | 7.29 | –
N#Cc1ccc(C2CCCc3cncn32)cc1 (stereo not shown) [FAD286] | – | – | plasma aldosterone [2]: reduced; cardiac and aortic medial hypertrophy [2]: attenuated; renal effects (albuminuria, azotemia, renovascular hypertrophy, glomerular injury, PAI-1 and osteopontin mRNA, tubulointerstitial fibrosis) [2]: prevented these renal effects; angiotensin II and salt-stimulated PAI-1 mRNA expression [2]: not; blood pressure and cardiovascular function and structure [3]: improved; kidney function and morphology [3]: improve
N#Cc1ccc([C@H]2CCc3cncn32)c(F)c1 [LCI699] | – | – | circulating aldosterone levels (CYP11B2 [4]; oral): significantly lower; blood pressure (CYP11B2 [4]): mildly decreased; hypokalemia (CYP11B2 [4]): corrected; selectivity (effects on the glucocorticoid axis, cortisol synthesis) (CYP11B2 [5]): poor selectivity
CC(=O)S[C@@H]1CC2=CC(=O)CC[C@]2(C)[C@H]2CC[C@@]3(C)[C@@H](CC[C@@]34CCC(=O)O4)[C@H]12 [spironolactone] | – | – | plasma aldosterone [2]: increased; cardiac and aortic medial hypertrophy [2]: attenuated; renal effects (albuminuria, azotemia, renovascular hypertrophy, glomerular injury, PAI-1 and osteopontin mRNA, tubulointerstitial fibrosis) [2]: prevented these renal effects; angiotensin II and salt-stimulated PAI-1 mRNA expression [2]: enhanced
